Reference: publication PMC7324975 (BMC Cancer, 2020)

Tests used:
CT26 cells = assay: WST1 cell viability assay; assay type: cell-based, mice; conditions: 24 h; for anti-tumor efficacy (cell viability), single use: C: 0 ~ 160 μM, R: 12.5 ~ 200 μM; for IC50: Mus musculus, WST1
Description: The mice colon cancer cell line, CT26, was provided by Johnpro Biotech (Taipei, Taiwan). The cells were maintained in ATCC-formulated RPMI-1640 Medium containing 10% heat-inactivated fetal bovine serum (FBS) and 1% antibiotic-antimycotic (GM) in a humidified incubator with 5% CO2 at 37 °C. […] The cell viability was determined through WST1 assay (Roche, Germany) after the 24-h treatment.

Caspase-3 = assay: Western blot of Caspase-3 cleavage form; assay type: cell-based, mice; conditions: CT26 cells, 3 h, single agents
Description: The CT26 cell lysates from the variety of the treatments were prepared using RIPA lysis buffer for immunoblotting of Cyclin D1 (Cell Signaling Technology, #92G2), Cyclin A (Santa Cruz Biotechnology, #sc-271,645), Hsp70 (Santa Cruz Biotechnology, #SC24), Caspase-3, and cleavage form of Caspase-3 (Cell Signaling Technology, #9662S). Western blot analysis was performed as previously reported.

| SMILES | anti-tumor efficacy (cell viability), single use (CT26 cells) | IC50 (CT26 cells) | cleavage form of Caspase-3 (Caspase-3) |
| --- | --- | --- | --- |
| COc1cc(/C=C/C(=O)CC(=O)/C=C/c2ccc(O)c(OC)c2)ccc1O [Curcumin, curcumin] | dose-dependent | 26.8 ± 1.06 µM | increased |
| Oc1ccc(/C=C/c2cc(O)cc(O)c2)cc1 [Resveratrol, resveratrol] | dose-dependent | 88.8 ± 1.07 µM | increased |
